We go through 7 compounds from PubChem BioAssay AID248 (DTP/NCI, 2004).

Values joined by “and” are separate entries in the source; they are usually repeats but may differ in a detail not shown here. Equal values may be shown once. Toxic doses and inconclusive results are not listed.

This assay deals with L1210 leukemia ip in BDF1 mice, survival T/C. In words: NCI In Vivo Anticancer Drug Screen. Data for tumor model L1210 Leukemia (intraperitoneal) in B6D2F1 (BDF1) mice. Particulars: endpoint: mean survival time, higher = longer survival. The gist of the method:
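Value reflects the ratio of survival in compound-treated mice to survival in vehicle-treated controls, with both groups carrying the same transplanted tumor.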

Setting [1] is: dose: 12.5 mg/kg/injection, schedule: Q04DX003 (ip), vehicle: saline.
The mark [2] stands for this setting: dose: 25.0 mg/kg/injection, schedule: Q01DX009 (ip), vehicle: saline.
[3] abbreviates: dose: 25.0 mg/kg/injection, schedule: Q04DX003 (ip), vehicle: saline.
[4] abbreviates: dose: 50.0 mg/kg/injection, schedule: Q01DX009 (ip), vehicle: saline.
The mark [5] stands for this setting: dose: 50.0 mg/kg/injection, schedule: Q04DX003 (ip), vehicle: saline.
The mark [6] stands for this setting: dose: 100.0 mg/kg/injection, schedule: Q04DX003 (ip), vehicle: saline.

For the compound `CC1CN1CC(O)C(O)CN1CC1C` (stereo not drawn), the T/C is 101 % of control (dose: 0.07 mg/kg/injection, schedule: Q01DX Z (ip), vehicle: saline); 108 % of control (dose: 0.07 mg/kg/injection, schedule: Q01DX Z (ip), vehicle: water); 106 % of control (dose: 0.1 mg/kg/injection, schedule: Q01DX Z (ip), vehicle: saline); 110 % of control (dose: 0.1 mg/kg/injection, schedule: Q01DX Z (ip), vehicle: water); 106 % of control and 110 % of control (dose: 0.15 mg/kg/injection, schedule: Q01DX Z (ip), vehicle: saline); 118 % of control (dose: 0.15 mg/kg/injection, schedule: Q01DX Z (ip), vehicle: water). Besides, the T/C (dose: 0.22 mg/kg/injection, schedule: Q01DX Z (ip), vehicle: saline) is 104 % of control and 114 % of control; the T/C (dose: 0.22 mg/kg/injection, schedule: Q01DX Z (ip), vehicle: water) was 124 % of control; the T/C (dose: 0.26 mg/kg/injection, schedule: Q01DX009 (ip), vehicle: saline) is 160 % of control; the T/C (dose: 0.26 mg/kg/injection, schedule: Q04DX003 (ip), vehicle: saline) is 117 % of control; the T/C (dose: 0.31 mg/kg/injection, schedule: Q01DX001 (ip), vehicle: carboxymethylcellulose (CMC)) was 105 % of control; the T/C (dose: 0.33 mg/kg/injection, schedule: Q01DX015 (ip), vehicle: saline) is 165 % of control. Further, the T/C is 121 % of control (dose: 0.33 mg/kg/injection, schedule: Q01DX Z (ip), vehicle: saline); 152 % of control (dose: 0.4 mg/kg/injection, schedule: Q01DX009 (ip), vehicle: saline); 108 % of control (dose: 0.5 mg/kg/injection, schedule: Q01DX001 (ip), vehicle: saline); 117 % of control (dose: 0.5 mg/kg/injection, schedule: Q01DX015 (ip), vehicle: saline); 163 % of control (dose: 0.6 mg/kg/injection, schedule: Q01DX015 (ip), vehicle: saline); 121 % of control (dose: 0.62 mg/kg/injection, schedule: Q01DX001 (ip), vehicle: carboxymethylcellulose (CMC)). Besides, the T/C (dose: 1.0 mg/kg/injection, schedule: Q01DX001 (ip), vehicle: saline) was 113 % of control; the T/C (dose: 1.0 mg/kg/injection, schedule: Q01DX015 (ip), vehicle: saline) was 153 % of control and 207 % of control; the T/C (dose: 1.25 mg/kg/injection, schedule: Q01DX001 (ip), vehicle: carboxymethylcellulose (CMC)) was 121 % of control; the T/C (dose: 1.4 mg/kg/injection, schedule: Q04DX003 (ip), vehicle: saline) is 153 % of control; the T/C (dose: 1.8 mg/kg/injection, schedule: Q01DX015 (ip), vehicle: saline) was 97 % of control and 116 % of control; the T/C (dose: 2.0 mg/kg/injection, schedule: Q01DX015 (ip), vehicle: saline) was 207 % of control and 221 % of control. The T/C reads like this: (dose: 2.1 mg/kg/injection, schedule: Q04DX003 (ip), vehicle: saline) 166 % of control; (dose: 2.5 mg/kg/injection, schedule: Q01DX001 (ip), vehicle: carboxymethylcellulose (CMC)) 150 % of control; (dose: 2.5 mg/kg/injection, schedule: Q01DX001 (ip), vehicle: saline) 152 % of control; (dose: 3.0 mg/kg/injection, schedule: Q01DX001 (ip), vehicle: saline) 102 % of control; (dose: 3.0 mg/kg/injection, schedule: Q01DX015 (ip), vehicle: saline) 261 % of control; (dose: 3.3 mg/kg/injection, schedule: Q04DX003 (ip), vehicle: saline) 160 % of control. The T/C (dose: 4.0 mg/kg/injection, schedule: Q01DX001 (ip), vehicle: saline) was 157 % of control; the T/C (dose: 4.0 mg/kg/injection, schedule: Q01DX015 (ip), vehicle: saline) was 166 % of control; the T/C (dose: 5.0 mg/kg/injection, schedule: Q01DX001 (ip), vehicle: carboxymethylcellulose (CMC)) was 152 % of control; the T/C (dose: 5.0 mg/kg/injection, schedule: Q01DX001 (ip), vehicle: saline) is 158 % of control; the T/C (dose: 5.5 mg/kg/injection, schedule: Q01DX001 (ip), vehicle: saline) is 157 % of control; the T/C (dose: 7.5 mg/kg/injection, schedule: Q04DX003 (ip), vehicle: saline) was 95 % of control and 257 % of control. The T/C by setting is: (dose: 8.0 mg/kg/injection, schedule: Q01DX015 (ip), vehicle: saline) 122 % of control and 86 % of control and 87 % of control; (dose: 10.0 mg/kg/injection, schedule: Q01DX001 (ip), vehicle: carboxymethylcellulose (CMC)) 236 % of control; (dose: 10.0 mg/kg/injection, schedule: Q01DX001 (ip), vehicle: saline) 210 % of control; (dose: 11.0 mg/kg/injection, schedule: Q01DX001 (ip), vehicle: saline) 247 % of control and 108 % of control and 116 % of control; (dose: 15.0 mg/kg/injection, schedule: Q01DX001 (ip), vehicle: saline) 250 % of control; (dose: 20.0 mg/kg/injection, schedule: Q01DX001 (ip), vehicle: saline) 91 % of control. The T/C reads like this: (dose: 22.0 mg/kg/injection, schedule: Q01DX001 (ip), vehicle: saline) 168 % of control; (dose: 25.0 mg/kg/injection, schedule: Q01DX001 (ip), vehicle: saline) 120 % of control; (dose: 30.0 mg/kg/injection, schedule: Q01DX001 (ip), vehicle: saline) 87 % of control; (dose: 41.0 micrograms/kg/injection, schedule: Q01DX015 (ip), vehicle: saline) 104 % of control; (dose: 50.0 micrograms/kg/injection, schedule: Q01DX009 (ip), vehicle: saline) 101 % of control; (dose: 62.0 micrograms/kg/injection, schedule: Q01DX015 (ip), vehicle: saline) 108 % of control. The T/C was 104 % of control (dose: 75.0 micrograms/kg/injection, schedule: Q01DX009 (ip), vehicle: saline); 110 % of control (dose: 113.0 micrograms/kg/injection, schedule: Q01DX009 (ip), vehicle: saline); 113 % of control (dose: 140.0 micrograms/kg/injection, schedule: Q01DX001 (ip), vehicle: saline); 120 % of control (dose: 210.0 micrograms/kg/injection, schedule: Q01DX001 (ip), vehicle: saline).

Turning to `CN1C2CCC1CN(Cc1ccccc1)C2`, the T/C (dose: 12.5 mg/kg/injection, schedule: Q01DX009 (ip), vehicle: saline) is 103 % of control; the T/C under setting [1] was 97 % of control; the T/C under setting [2] is 101 % of control; the T/C under setting [3] is 101 % of control; the T/C under setting [4] is 101 % of control; the T/C under setting [5] was 98 % of control.

As to `Nc1cccc(CCCCc2ccc(Cl)cc2Cl)c1`, the T/C was 97 % of control (dose: 100.0 mg/kg/injection, schedule: Q01DX001 (ip), vehicle: Klucel (hydroxypropylcellulose) (HPC)); 96 % of control (dose: 200.0 mg/kg/injection, schedule: Q01DX001 (ip), vehicle: Klucel (hydroxypropylcellulose) (HPC)); 102 % of control (dose: 400.0 mg/kg/injection, schedule: Q01DX001 (ip), vehicle: Klucel (hydroxypropylcellulose) (HPC)).

Consider `NC1CC1c1ccccc1` (stereo not drawn), for which the T/C runs as follows: under setting [1], 98 % of control and 93 % of control; under setting [2], 97 % of control; under setting [3], 96 % of control and 100 % of control and 92 % of control; under setting [4], 105 % of control; under setting [5], 96 % of control and 95 % of control and 100 % of control; (dose: 100.0 mg/kg/injection, schedule: Q01DX009 (ip), vehicle: saline) 105 % of control. Also, under setting [6], the T/C was 86 % of control and 103 % of control.

As to `COC(=O)c1cc(C)[n+]([O-])cc1C(=O)OC`, the T/C under setting [6] is 92 % of control; the T/C (dose: 200.0 mg/kg/injection, schedule: Q04DX003 (ip), vehicle: saline) is 97 % of control; the T/C (dose: 400.0 mg/kg/injection, schedule: Q04DX003 (ip), vehicle: saline) is 100 % of control.

In the case of `CC(C)(CO)N=Cc1ccc(O)cc1O`, the T/C by setting is: (dose: 100.0 mg/kg/injection, schedule: Q01DX001 (ip), vehicle: carboxymethylcellulose (CMC)) 96 % of control; (dose: 200.0 mg/kg/injection, schedule: Q01DX001 (ip), vehicle: carboxymethylcellulose (CMC)) 93 % of control; (dose: 400.0 mg/kg/injection, schedule: Q01DX001 (ip), vehicle: carboxymethylcellulose (CMC)) 91 % of control.

As to `CC(=O)NN(c1ccc([N+](=O)[O-])cc1)c1ccc([N+](=O)[O-])cc1`, the T/C (dose: 50.0 mg/kg/injection, schedule: Q01DX009 (ip), vehicle: Klucel (hydroxypropylcellulose) (HPC)) is 97 % of control; the T/C (dose: 100.0 mg/kg/injection, schedule: Q01DX009 (ip), vehicle: Klucel (hydroxypropylcellulose) (HPC)) is 90 % of control; the T/C (dose: 100.0 mg/kg/injection, schedule: Q04DX003 (ip), vehicle: Klucel (hydroxypropylcellulose) (HPC)) is 93 % of control; the T/C (dose: 200.0 mg/kg/injection, schedule: Q04DX003 (ip), vehicle: Klucel (hydroxypropylcellulose) (HPC)) was 95 % of control.
